Laboratory results taken from paper PMC12365235, “Molecular mechanisms of thiazide-like diuretics-mediated inhibition of the human Na-Cl cotransporter” (Nature Communications, 2025).

Target: T1, NCCcryo (Homo sapiens, UniProt P55017, E240A)
T1 sequence (P55017 132-1021 E240A): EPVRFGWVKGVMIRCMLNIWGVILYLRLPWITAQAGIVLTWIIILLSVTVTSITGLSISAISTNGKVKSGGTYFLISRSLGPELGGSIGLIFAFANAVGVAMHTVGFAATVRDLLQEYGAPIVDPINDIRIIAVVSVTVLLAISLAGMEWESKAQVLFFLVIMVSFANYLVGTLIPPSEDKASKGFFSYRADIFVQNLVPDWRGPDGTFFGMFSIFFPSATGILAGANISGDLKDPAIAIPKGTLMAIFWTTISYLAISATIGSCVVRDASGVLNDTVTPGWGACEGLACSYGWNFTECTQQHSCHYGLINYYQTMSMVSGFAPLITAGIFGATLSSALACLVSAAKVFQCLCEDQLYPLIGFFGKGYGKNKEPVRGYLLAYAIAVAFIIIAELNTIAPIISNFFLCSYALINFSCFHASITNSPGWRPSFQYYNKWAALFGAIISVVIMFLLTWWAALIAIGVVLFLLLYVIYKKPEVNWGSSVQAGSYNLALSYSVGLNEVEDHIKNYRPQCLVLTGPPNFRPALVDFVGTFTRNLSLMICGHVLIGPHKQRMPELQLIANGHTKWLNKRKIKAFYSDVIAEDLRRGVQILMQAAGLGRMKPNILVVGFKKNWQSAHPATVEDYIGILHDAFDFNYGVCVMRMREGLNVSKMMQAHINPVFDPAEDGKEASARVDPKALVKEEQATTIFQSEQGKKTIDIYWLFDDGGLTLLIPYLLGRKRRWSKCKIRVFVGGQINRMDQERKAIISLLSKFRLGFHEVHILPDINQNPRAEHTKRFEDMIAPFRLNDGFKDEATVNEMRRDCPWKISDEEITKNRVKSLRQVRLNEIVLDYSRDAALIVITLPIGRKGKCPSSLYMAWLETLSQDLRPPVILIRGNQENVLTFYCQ
T1 sequence (A0A0G2KTI4 1-202 E76K partner): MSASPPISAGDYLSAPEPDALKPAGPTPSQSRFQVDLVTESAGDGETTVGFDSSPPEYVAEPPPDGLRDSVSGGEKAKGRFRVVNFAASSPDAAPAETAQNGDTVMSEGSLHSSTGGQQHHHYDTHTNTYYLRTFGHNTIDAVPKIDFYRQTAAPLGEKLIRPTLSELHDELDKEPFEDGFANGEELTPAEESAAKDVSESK
Assay: 125I- uptake assay, NCCcryo construct
Type: cell-based
Details: thiazide-sensitive iodide uptake; hNCC with DrNKCC1 NTD and E240A
Experimental: The NCCcryo construct consists of human NCC with its NTD (first 131 residues) replaced by that of zebrafish NKCC1 (first 202 residues), along with an E240A mutation and a Strep-tag II[69] at the N-terminus. The codon-optimized NCCcryo was cloned into a modified BacMam vector[70], which was then used for generating baculoviruses. HEK293S cells (3.0–3.5 × 10^6 cells per mL) were infected with the baculoviruses for NCCcryo, with sodium butyrate (10 mM) added 12–15 h afterwards, and the incubation temperature reduced to 30 °C. Two days after the addition of sodium butyrate, HEK293S cells were harvested.
HEK293S cell lines, cultured in 293 Freestyle medium (Life Technologies; plus 10% fetal bovine serum), stably expressing hNCC and its variants were generated following published protocols. Cells were transfected using Lipofectamine 3000 (Invitrogen) with a pSBbi-RP-based plasmid containing hNCC or its variants and the SB100X vector. Puromycin (2 μg/mL; Gemini Bio-Products) was used for selection of stable cell lines.
To prepare for the uptake experiment, cells were plated at 0.5 × 10^6 cells/well in 24-well plates one day in advance. […] Cells lysed using 1% sodium dodecyl sulfate (SDS) were analyzed by scintillation counting. […]

Row | Structure (SMILES) | IC50 [nM]
1 | NS(=O)(=O)c1cc(C2(O)NC(=O)c3ccccc32)ccc1Cl (centres unmarked) [chlorthalidone] | 20
2 | CC1Cc2ccccc2N1NC(=O)c1ccc(Cl)c(S(N)(=O)=O)c1 (centres unmarked) [indapamide] | 9.1
